{"source": "patent US11135211B2", "about": "“Pimavanserin for treating impulse control disorder” (ACADIA Pharmaceuticals Inc., priority 2017, dated 2021)", "key": {"[1]": {"tested_on": "lean, female, Wistar rats", "experiment": "Binge-eating on chocolate in rats (BED model)", "assay_type": "in vivo", "excerpt": "Carbohydrate and fat ‘comfort foods’, with bingeing on chocolate are known to be associated with eating disorders in humans and in rodents.\nBED is, for example, to be studied using lean, female, Wistar rats (weight range 200-250 g at the start of the study) from Charles River, UK. Rats are to be contained in a controlled environment and housed in an appropriate way to perform the study, for example singly-housed in polypropylene cages with wire grid floors to enable food intake of each rat to be recorded. […]\nBody weight, food and water intake are to be measured each day throughout the study, for example as described in the following: Animals are to be weighed at weekly intervals after arrival. […] The weights of the jars are to be recorded before and after the 2 h test session. […] The body weight of each rat and its food and water intake are to be measured on every morning of the study; readings are to be taken in the final stage of the light phase at ˜09:45 h. […]\nDuring the training period, an extra food jar (along with the jar containing normal chow) containing chocolate are to be added to the cage for 2 hr/day intermittently, for at least three weeks, using the access schedule above. […] The chocolate and chow consumed during this 2 h period are to be measured. […]"}, "[2]": {"tested_on": "rats with 6-hydroxydopamine (6OHDA)-induced lesions of the dorsolateral striatum (DLS)", "experiment": "ICSS-mediated probability discounting (risk-taking) in rat model of PD", "assay_type": "in vivo", "conditions": "co-administration with pramipexole", "excerpt": "Impulsiveness includes a greater tendency for risk-taking. This tendency can be quantified using probability discounting procedures; a cross-species assessment in which the subject chooses between a small reinforcer (SR) delivered at a high probability, and a large reinforcer (LR) delivered at a low probability. Typically, the subjective value of the LR is discounted when its probability is low, and individuals then select the smaller, yet more certain reinforcer. Those who suffer from ICD are less sensitive to low probabilities than healthy individuals, and they more frequently select the LR even when the odds to obtain the reward are very low (Hendrickson, et al., Effects of mindful eating training on delay and probability discounting for food and money in obese and healthy-weight individuals. Behav. Res. Ther. 51, 399-409, 2013). […]\nRats then will be trained for ICSS followed by probability discounting. […] Pramipexole will be infused for 14 days (optionally a similar time period may be used), during which probability discounting will be assessed each day. Forelimb akinesia will be evaluated before lesion, after lesion, and at various time points during pramipexole administration. […]"}, "[3]": {"tested_on": "6-OHDA lesioned rats", "experiment": "Forelimb step task (forelimb akinesia) in 6-OHDA lesioned rats", "assay_type": "in vivo", "conditions": "co-administration with pramipexole", "experimental": "Male Sprague-Dawley (outbred) rats (250-300 g; Harlan Laboratories, Indianapolis, Ind.) are to be pair-housed under environmentally controlled conditions under a 12 h light/dark cycle (lights on at 07:00); food and water are to be available ad libitum.\n6-OHDA lesions will be carried out at described previously (Napier et al., Pramipexole-induced increased probabilistic discounting: comparison between a rodent model of Parkinson's disease and controls. Neuropsychopharmacology 37, 1397-1408, 2012). Prior to inducing lesions, desipramine (obtained from Sigma-Aldrich), a norepinephrine reuptake inhibitor, will be administered (25 mg/kg subcutaneously (sc)) to enhance selectivity of 6OHDA for dopamine neurons. Rats were anesthetized with isoflurane and secured in a stereotaxic frame. […]\nRats then will be trained for ICSS followed by probability discounting. […] Pramipexole will be infused for 14 days (optionally a similar time period may be used), during which probability discounting will be assessed each day. Forelimb akinesia will be evaluated before lesion, after lesion, and at various time points during pramipexole administration. […] Probability discounting will be assessed each day of chronic drug treatment; forelimb akinesia will be evaluated before lesion, after lesion, and at various time points during chronic drug administration."}, "[4]": {"tested_on": "PD patients", "conditions": "cited from earlier work"}}, "data": [{"smiles": "CC(C)COc1ccc(CNC(=O)N(Cc2ccc(F)cc2)C2CCN(C)CC2)cc1", "note": "[pimavanserin, N-(1-methylpiperidin-4-yl)-N-(4-fluorophenylmethyl)-N′-(4-(2-methylpropyloxy)phenylmethyl)carbamide]", "values": [{"measurement": "consumption of standard laboratory diet during the 2 h binge-eating session", "setting": "[1]; compared to vehicle treated control", "value": "no effect"}, {"measurement": "consumption of palatable food (chocolate) in 2 h binge-eating session", "setting": "[1]; pimavanserin 0.1, 0.5, 1.0, 3.0, 6.0, 10.0 mg/kg po 60 min prior to session", "value": "decrease the consumption"}, {"measurement": "risk taking behavior in rats receiving pramipexole (proportion of rats selecting LR)", "setting": "[2]", "value": "reduced risk taking behavior"}, {"measurement": "motor function in rats receiving pramipexole", "setting": "[3]", "value": "did not alter motor function"}, {"measurement": "hallucinations and delusions associated with PD", "setting": "[4]", "value": "control hallucinations and delusions"}, {"measurement": "motor function in PD patients", "setting": "[4]", "value": "without impacting motor function"}]}]}
